In paper PMC7828211, “LysM Receptor-Like Kinase LYK9 of Pisum Sativum L. May Regulate Plant Responses to Chitooligosaccharides Differing in Structure” (International Journal of Molecular Sciences, 2021) one finds Kd data, which are given here for six molecules.

Like-named read-outs stand apart in the source and are kept apart here.

Assay [1] addresses T1, PsLYK9-ECD (Lathyrus oleraceus, UniProt A0A9D5AD18).
T1 construct: gene KIW84_053210; corresponds to residues 31-235), GP67 signal in vector, 6xHis tag, Sf9 cells, predicted 23 kDa, about 35 kDa on blot; RED-tris-NTA labelled
T1 sequence (A0A9D5AD18 26-230): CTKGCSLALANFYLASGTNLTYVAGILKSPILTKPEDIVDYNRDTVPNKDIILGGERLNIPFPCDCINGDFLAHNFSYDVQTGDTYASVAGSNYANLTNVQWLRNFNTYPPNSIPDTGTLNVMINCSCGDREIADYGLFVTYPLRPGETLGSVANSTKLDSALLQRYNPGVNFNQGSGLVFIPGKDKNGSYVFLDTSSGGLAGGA
In words: microscale thermophoresis. In kind it is binding. As to conditions: 50 mM Tris pH 7.4, 10 mM MgCl2, 150 mM NaCl, 0.05% Tween 20, 25 °C; 20 nM RED-tris-NTA labelled protein; read-out: Kd, μM (±SD). An excerpt:
microscale thermophoresis on PsLYK9-ECD
A general note: MST reads how a fluorescent partner responds to local heating, with and without ligand.

In assay [2] the target is T2, PsLYR4-ECD.
T2 construct: gene LYR4; corresponds to residues 8-257), GP67 signal in vector, 6xHis tag, Sf9 cells, predicted 27 kDa, about 32 kDa on blot; RED-tris-NTA labelled
As to the kind of experiment: microscale thermophoresis. In kind it is binding, Pisum sativum. As to conditions: 50 mM Tris pH 7.4, 10 mM MgCl2, 150 mM NaCl, 0.05% Tween 20, 25 °C, 20 nM RED-tris-NTA labelled protein. An excerpt:
microscale thermophoresis on PsLYR4-ECD

As a reminder, the Kd is the concentration at which binding is half-saturated.

On to `CC(=O)N[C@H]1[C@H](O[C@H]2[C@H](O)[C@@H](NC(C)=O)C(O)O[C@@H]2CO)O[C@H](CO)[C@@H](O[C@@H]2O[C@H](CO)[C@@H](O[C@@H]3O[C@H](CO)[C@@H](O)[C@H](O)[C@H]3NC(C)=O)[C@H](O)[C@H]2NC(C)=O)[C@@H]1O` (stereo partly shown) [CO4], for which the Kd in assay [1] amounted to 2.1 ± 0.6 µM.

On to `N[C@H]1[C@H](O[C@H]2[C@H](O)[C@@H](N)[C@H](O[C@H]3[C@H](O)[C@@H](N)[C@H](O[C@H]4[C@H](O)[C@@H](N)[C@H](O[C@H]5[C@H](O)[C@@H](N)C(O)O[C@@H]5CO)O[C@@H]4CO)O[C@@H]3CO)O[C@@H]2CO)O[C@H](CO)[C@@H](O)[C@@H]1O` (stereo partly shown) [CO5-DA], for which the Kd stood at 45 ± 20 µM in assay [2] (read-out: Kd, μM (±SD)) and 76 ± 25 µM in assay [1].

For the molecule `CC(=O)N[C@H]1[C@H](O[C@H]2[C@H](O)[C@@H](NC(C)=O)[C@H](O[C@H]3[C@H](O)[C@@H](NC(C)=O)C(O)O[C@@H]3CO)O[C@@H]2CO)O[C@H](CO)[C@@H](O[C@@H]2O[C@H](CO)[C@@H](O[C@@H]3O[C@H](CO)[C@@H](O)[C@H](O)[C@H]3NC(C)=O)[C@H](O)[C@H]2NC(C)=O)[C@@H]1O` (stereo partly shown) [CO5], in assay [1], the equilibrium dissociation constant (Kd) is 5 ± 1.9 µM.

For the molecule `N[C@H]1[C@H](O[C@H]2[C@H](O)[C@@H](N)[C@H](O[C@H]3[C@H](O)[C@@H](N)[C@H](O[C@H]4[C@H](O)[C@@H](N)[C@H](O[C@H]5[C@H](O)[C@@H](N)[C@H](O[C@H]6[C@H](O)[C@@H](N)C(O)O[C@@H]6CO)O[C@@H]5CO)O[C@@H]4CO)O[C@@H]3CO)O[C@@H]2CO)O[C@H](CO)[C@@H](O)[C@@H]1O` (stereo partly shown) [CO6-DA], the Kd in assay [2] (read-out: Kd, μM (±SD)) was found to be 22 ± 11 µM; in assay [1], 42 ± 23 µM.

Turning to `N[C@H]1[C@H](O[C@H]2[C@H](O)[C@@H](N)[C@H](O[C@H]3[C@H](O)[C@@H](N)[C@H](O[C@H]4[C@H](O)[C@@H](N)[C@H](O[C@H]5[C@H](O)[C@@H](N)[C@H](O[C@H]6[C@H](O)[C@@H](N)[C@H](O[C@H]7[C@H](O)[C@@H](N)C(O)O[C@@H]7CO)O[C@@H]6CO)O[C@@H]5CO)O[C@@H]4CO)O[C@@H]3CO)O[C@@H]2CO)O[C@H](CO)[C@@H](O)[C@@H]1O` (stereo partly shown) [CO7-DA], the equilibrium dissociation constant (Kd) is 19 ± 13 µM in assay [2] (read-out: Kd, μM (±SD)) and 31 ± 11 µM in assay [1].

Consider CO8-DA, for which the equilibrium dissociation constant (Kd) in assay [2] (read-out: Kd) turned out to be 8 ± 5 µM; in assay [1], 26 ± 15 µM.
